Results: patent US8361998B2, “Compounds and their use as IKACh blockers” (AstraZeneca AB, priority 2010, dated 2013)

The molecules below were run against T1, human cardiac ion channel proteins hKir3.1/Kir3.4 (Homo sapiens, UniProt P48544+P48549) (assay: Atomic Absorption Screening (AAS) Rb efflux assay of hKir3.1/Kir3.4 block, carbachol/high K+ stimulated, 10-pt or 7-pt CR). Conditions: 10-pt CR (0.003 to 67 μmol/L), AAS Rb efflux, CHO-K1 cells expressing hKir3.1/Kir3.4; mean of >4 replicates; read-out: IKACh IC50 10-pt CR, AAS.
T1 construct: expressed in transfected cells
T1 sequence (P48549 1-501): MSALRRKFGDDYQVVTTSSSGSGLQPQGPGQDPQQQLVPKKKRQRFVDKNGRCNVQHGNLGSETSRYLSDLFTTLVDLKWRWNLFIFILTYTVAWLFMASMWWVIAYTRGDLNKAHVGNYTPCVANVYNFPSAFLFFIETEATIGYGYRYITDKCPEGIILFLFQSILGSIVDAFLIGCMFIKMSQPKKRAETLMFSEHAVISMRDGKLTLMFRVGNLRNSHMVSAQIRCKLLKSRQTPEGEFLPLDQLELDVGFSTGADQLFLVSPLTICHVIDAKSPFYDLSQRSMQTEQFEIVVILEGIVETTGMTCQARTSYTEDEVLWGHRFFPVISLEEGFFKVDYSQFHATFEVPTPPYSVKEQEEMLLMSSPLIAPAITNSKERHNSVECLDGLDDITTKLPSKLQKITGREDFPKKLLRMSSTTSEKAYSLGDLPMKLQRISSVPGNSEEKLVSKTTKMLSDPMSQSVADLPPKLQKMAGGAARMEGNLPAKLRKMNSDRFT
T1 sequence (P48544 1-419): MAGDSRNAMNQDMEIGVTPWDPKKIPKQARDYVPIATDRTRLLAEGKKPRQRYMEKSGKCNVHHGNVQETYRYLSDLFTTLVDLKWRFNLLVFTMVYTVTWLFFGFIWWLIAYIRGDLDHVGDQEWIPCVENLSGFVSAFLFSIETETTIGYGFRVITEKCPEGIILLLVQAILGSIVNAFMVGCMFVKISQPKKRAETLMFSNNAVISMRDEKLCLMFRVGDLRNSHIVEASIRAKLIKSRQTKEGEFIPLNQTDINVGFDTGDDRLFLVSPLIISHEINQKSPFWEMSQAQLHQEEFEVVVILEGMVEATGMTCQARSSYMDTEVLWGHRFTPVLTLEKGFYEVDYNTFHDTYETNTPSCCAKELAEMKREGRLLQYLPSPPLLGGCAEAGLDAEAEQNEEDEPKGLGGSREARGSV
Assay type: cell-based
From the text: Human KCNJ3 encoding Kir3.1 (Genbank acc. No. NM_002239) was inserted between EcoRI and NotI in the pIRESneo3 vector (Clontech Laboratories, Inc. CA, USA). Human KCNJ5 encoding Kir3.4 (Genbank Acc. No. BC069482) was inserted between EcoR1 and Not1 in the pIRESpuro3 vector (Clontech Laboratories, Inc. CA, USA). A Kozak sequence (GCCACC) was introduced before the start codon ATG of both constructs. Chinese Hamster Ovary K1, CHO-FLP/IN, cells (Invitrogen Corporation, Paisley, UK) were transfected simultaneously using Lipofectamine 2000 reagent (Invitrogen Corporation, Paisley, UK). Geneticin 600 μg/mL (Invitrogen Corporation, Paisley, UK) and puromycin 3 μg/mL (BD Bioscience) were added to the cell culture medium 3 days after transfection. Two weeks after transfection, colonies had appeared and were manually picked and sorted to one cell per well in a 96-well plate. Cells were then tested for Kir3.1 and Kir3.4 expression using membrane potential assay, Western Blot and Immunocytochemistry. […] The cell line was re-sorted by flow cytometry and resulting clones were assayed electrophysiologically using IonWorks (Molecular Devices) and later validated on the Q-Patch (Sophion A/S).
The stable cell line was cultured in DMEM/F12 with Glutamax 1 (Invitrogen Corporation, Paisley, UK), supplemented with foetal bovine serum 10%, puromycin 3 μg/mL, hygromycin 300 μg/mL and geneticin 600 μg/mL (Invitrogen Corporation, Paisley, UK). Care was taken not to seed cells at too low density and cells were passaged at approximately 70-80% confluency. Cells used for patch-clamp experiments were prepared by washing using PBS (—Mg, —Ca^2+), 2 times, detached using Accutase (Sigma). For Q-Patch measurements, storage medium was prepared fresh by adding 1.25 mL of 1M Hepes (GibcoBRL) to 50 mL CHO-SFM II medium (GibcoBRL) and detached cells were diluted to 2 million cells/mL in this medium. Frozen (Cryopreserved) cells were used for Atomic Absorption Screening (AAS) and plated poly-D-lysine 384-well plates (Greiner) at a density of 11,000-13,000 cells/well, the day before assay.
The blocking effects of compounds on the human cardiac ion channel proteins hKir3.1/Kir3.4 were assessed in CHO-K1 cells stably expressing the channel proteins using Atomic Absorption Screening (AAS). Cells were washed and then loaded with 25 μL Rb-loading buffer for three hours at 37° C. After that, the cells were washed again and 25 μL of diluted compound was transferred to the cell plate, incubated for 5 min in RT, and then […] of Carbachol/high K+ (10 μM carbachol and 20 mM KCl final concentration) buffer added to stimulate the cells and open the Kir3.1/Kir3.4 channel. After 10 min stimulation, […] of the supernatant was transferred to a new microplate, 45 μL washing buffer added to the supernatant and the level of Rb in the supernatant was then measured using an Aurora ICR 8000. Compounds were studied at concentrations ranging from 0.003 to 67 μmol/L (dilutions by three, 10-pt CR) or from 0.037 to 27 μmol/L (dilutions by three, 7-pt CR).
Stock solutions of compounds were prepared in DMSO 10 mM and stored at RT. Buffers used for AAS contained (in mM): HEPES 20, NaCl 150, MgCl2 1.0, CaCl2 2.0 and NaH2PO4 0.8 and Glucose 10 (wash 1) or KCl 5 and Glucose 5 (wash 2) or KCl 5 (dilution buffer). The High K^+ channel opener buffer contained (in mM): HEPES 20, NaCl 130, MgCl2 1.0, CaCl2 2.0 and NaH2PO4 0.8 together with KCl 20. Solutions used for Q-Patch (extracellular) in mM: NaCl 145, KCl 4, CaCl2 2.0, MgCl2 1.0, HEPES 10 and glucose 10. The high K^+ extra cellular solution used for Q-Patch in mM: NaCl 96.7, KCl 50.7, CaCl2 2.0, MgCl2 1.0, HEPES 10 and glucose 10 while the intra cellular solution used was (in mM): KCl 120, CaCl2 5.374, MgCl2 1.75, EGTA 10, KOH 3.125, HEPES 10, Na2ATP 4.
Results are given as mean IC50 of >4 replicates (10-pt CR, AAS) or >3 replicates (7-pt CR, AAS). Some of the data in Table 1 are mean values of two or more runs. […]

Row | SMILES | IC50
1 | CCC[C@@H](CN1CCC1)N(C)C(=O)c1ccc(Cl)cc1Cl [Example 1.1, (S)—N-(1-(Azetidin-1-yl)pentan-2-yl)-2,4-dichloro-N-methylbenzamide] | 2.3 µM
2 | CCC[C@@H](CN1CCC1)N(C)C(=O)c1ccc(Br)cc1 [Example 1.3, (S)-N-(1-(Azetidin-1-yl)pentan-2-yl)-4-bromo-N-methylbenzamide] | 3.1 µM

Same assay, conditions: printed as IC50 >67 μM in the 10-pt CR assay or IC50 >27 μM in the 7-pt CR assay; assay format per compound not stated; read-out: IC50

Row | SMILES | IC50
3 | CC(C)[C@@H](CCN1CCCC1)N(C)C(=O)c1ccc(Cl)cc1F [4-Chloro-2-fluoro-N-methyl-N-[(1R)-2-methyl-1-(2-pyrrolidin-1-ylethyl)propyl]benzamide] | > 27 µM
4 | CC(C)[C@@H](CN1C[C@@H](O)[C@H](O)C1)N(C)C(=O)c1ccc(Cl)cc1 [4-Chloro-N-((S)-1-((3R,4R)-3,4-dihydroxypyrrolidin-1-yl)-3-methylbutan-2-yl)-N-methylbenzamide] | > 27 µM
5 | CC(C)[C@@H](CN1C[C@@H](O)[C@H](O)C1)N(C)C(=O)c1ccc(C#N)cc1 [4-Cyano-N-((S)-1-((3R,4R)-3,4-dihydroxypyrrolidin-1-yl)-3-methylbutan-2-yl)-N-methylbenzamide] | > 27 µM
6 | CC(C)[C@@H](CN1C[C@H](O)[C@@H](O)C1)N(C)C(=O)c1ccc(C#N)cc1 [4-Cyano-N-((S)-1-((3S,4S)-3,4-dihydroxypyrrolidin-1-yl)-3-methylbutan-2-yl)-N-methylbenzamide] | > 27 µM
7 | Cc1cc(C(=O)N(C)C(C)(C)CN2CCCC2)ccc1F [4-Fluoro-N,3-dimethyl-N-(2-methyl-1-(pyrrolidin-1-yl)propan-2-yl)benzamide] | > 27 µM
8 | CC(C)[C@@H](CN1CC(O)C1)N(C)C(=O)c1ccc(F)c(CO)c1 [4-Fluoro-N-[(1S)-1-[(3-hydroxyazetidin-1-yl)methyl]-2-methyl-propyl]-3-(hydroxymethyl)-N-methyl-benzamide] | > 27 µM
9 | CC(C)[C@@H](CN1CCCC1)N(C)C(=O)c1ccc(F)cc1 [4-Fluoro-N-methyl-N-[(1S)-2-methyl-1-(pyrrolidin-1-ylmethyl)propyl]benzamide] | > 27 µM
10 | CC(C)[C@H](CN1CCC1)N(C)C(=O)c1ccc(Br)cc1 [(R)-N-(1-(Azetidin-1-yl)-3-methylbutan-2-yl)-4-bromo-N-methylbenzamide] | > 27 µM
11 | CC(C)[C@@H](CN1CC(F)(CO)C1)N(C)C(=O)c1ccc(F)c(F)c1 [(S)-3,4-Difluoro-N-(1-(3-fluoro-3-(hydroxymethyl)azetidin-1-yl)-3-methylbutan-2-yl)-N-methylbenzamide] | > 27 µM
12 | CC(C)[C@@H](CN1CC(C)(O)C1)N(C)C(=O)c1ccc(F)c(F)c1 [(S)-3,4-Difluoro-N-(1-(3-hydroxy-3-methylazetidin-1-yl)-3-methylbutan-2-yl)-N-methylbenzamide] | > 27 µM
13 | CC(C)[C@@H](CN1CCC(F)(F)C1)N(C)C(=O)c1ccc(Br)cc1 [(S)-4-Bromo-N-(1-(3,3-difluoropyrrolidin-1-yl)-3-methylbutan-2-yl)-N-methylbenzamide] | > 27 µM
14 | CC(C)[C@@H](CN1CCC(F)(F)C1)N(C)C(=O)c1ccc(Cl)cc1 [(S)-4-Chloro-N-(1-(3,3-difluoropyrrolidin-1-yl)-3-methylbutan-2-yl)-N-methylbenzamide] | > 27 µM
15 | CC(C)[C@@H](CN1CC(F)C1)N(C)C(=O)c1ccc(C#N)cc1F [(S)-4-Cyano-2-fluoro-N-(1-(3-fluoroazetidin-1-yl)-3-methylbutan-2-yl)-N-methylbenzamide] | > 27 µM
16 | CC(C)[C@@H](CN1CC(C)(O)C1)N(C)C(=O)c1ccc(F)cc1 [(S)-4-Fluoro-N-(1-(3-hydroxy-3-methylazetidin-1-yl)-3-methylbutan-2-yl)-N-methylbenzamide] | > 27 µM
17 | CC(C)[C@@H](CN1CCCC(F)(F)C1)N(C)C(=O)c1ccc(F)c(F)c1 [(S)-N-(1-(3,3-Difluoropiperidin-1-yl)-3-methylbutan-2-yl)-3,4-difluoro-N-methylbenzamide] | > 27 µM
18 | Cc1cc(C(=O)N(C)[C@H](CN2CCC(F)(F)C2)C(C)C)ccc1F [(S)-N-(1-(3,3-Difluoropyrrolidin-1-yl)-3-methylbutan-2-yl)-4-fluoro-N,3-dimethylbenzamide] | > 27 µM
19 | COc1cccc(C(=O)N(C)[C@H](CN2CC(F)C2)C(C)C)c1 [(S)-N-(1-(3-Fluoroazetidin-1-yl)-3-methylbutan-2-yl)-3-methoxy-N-methylbenzamide] | > 27 µM
20 | CC(C)[C@@H](CN1CC(C)(O)C1)N(C)C(=O)c1ccccc1 [(S)-N-(1-(3-Hydroxy-3-methylazetidin-1-yl)-3-methylbutan-2-yl)-N-methylbenzamide] | > 27 µM
21 | Cc1cc(C(=O)N(C)[C@H](CN2CCC(F)(F)CC2)C(C)C)ccc1F [(S)-N-(1-(4,4-Difluoropiperidin-1-yl)-3-methylbutan-2-yl)-4-fluoro-N,3-dimethylbenzamide] | > 27 µM
22 | COc1ccc(C(=O)N(C)[C@H](CN2CCC2)C(C)C)cc1F [(S)-N-(1-(Azetidin-1-yl)-3-methylbutan-2-yl)-3-fluoro-4-methoxy-N-methylbenzamide] | > 27 µM
23 | CC(C)[C@@H](CN1CCC1)N(C)C(=O)c1ccc(C#N)cc1 [(S)-N-(1-(Azetidin-1-yl)-3-methylbutan-2-yl)-4-cyano-N-methylbenzamide] | > 27 µM
24 | Cc1cc(F)ccc1C(=O)N(C)[C@H](CN1CCCC1)C(C)(C)C [(S)-N-(3,3-Dimethyl-1-(pyrrolidin-1-yl)butan-2-yl)-4-fluoro-N,2-dimethylbenzamide] | > 27 µM
